Measurements from patent publication US11440903B2, “Salt form and crystal form of compound as FGFR4 inhibitor and preparation method thereof” (GUANGDONG ZHONGSHENG PHARMACEUTICAL CO., LTD, priority 2017, dated 2022).

How the values were obtained:
[1] = Solid stability test of the crystal forms (influence factors and acceleration tests; appearance, XRPD, HPLC content and impurities); type: physicochemical; conditions: for stability under acceleration conditions, conclusion in words / thermal stability (high temperature), conclusion in words / photostability (stability under light radiation), conclusion in words / stability under high humidity conditions, conclusion in words: conclusion of influence factors and acceleration tests
From the text: A sample of the crystal form A was placed on the bottom of a glass sample bottle, and spread to a thin layer. The sample stored under high temperature, high humidity, and acceleration conditions was placed in a bottle of which the mouth was packed with a pierced aluminum foil to ensure the sample to be sufficiently exposed to ambient air; the sample stored under light radiation conditions was placed at room temperature in a standing bottle of which the mouth was open, the sample was exposed to a light resource, and sampled for detection after being radiated by sufficient energy. Samples were taken and analyzed at various time points, and the test results were compared with the initial test results of 0 day, the inspection items included appearance, content and impurities, and the test results are shown in Table 9.
A sample of the crystal form B (10 mg) was placed on the bottom of a glass sample bottle, and spread to a thin layer. The sample stored under high temperature, high humidity, and acceleration conditions were placed in a bottle of which the mouth was packed with a pierced aluminum foil to ensure the sample to be sufficiently exposed to ambient air; the sample stored under light radiation conditions was placed at room temperature in a standing bottle of which the mouth was open, the sample was exposed to a light resource, and sampled for detection after being radiated by sufficient energy, the control sample stored in dark (open, the whole sample bottle was sealed with aluminum foil to keep the content in dark) and the sample stored under light radiation conditions were placed together to exclude environmental influence on the samples. Samples were taken and analyzed at various time points, and the test results were compared with the initial test results of 0 day, the inspection items included appearance, crystal form, content and impurities, the test results are shown in Table 10.
(§1) A sample of the crystal form C was taken and placed on the bottom of a glass sample bottle, and spread to a thin layer. The sample stored under high temperature, high humidity, and acceleration conditions was placed in a bottle of which the mouth was packed with a pierced aluminum foil to ensure the sample to be sufficiently exposed to ambient air; the sample stored under light radiation conditions was placed at room temperature in a standing bottle of which the mouth was open, the sample was exposed to a light resource, and sampled for detection after being radiated by sufficient energy. Samples were taken and analyzed at various time points, and the test results were compared with the initial test results of 0 day.
as §1, with “D” for “C”
A sample of the crystal form E (10 mg) was taken and placed on the bottom of a glass sample bottle, and spread to a thin layer. […]

[2] = Stability of the crystal form on stirring as suspension in solvent (40° C., 2 days); type: physicochemical
Method: 30 mg of the compound represented by formula (I) was weighed and added into a glass flask, 400 μL acetonitrile-water (1:1) was added to form a suspension. A sample of the suspension was placed on a magnetic stirrer (40° C.) for a dark stirring experiment. The sample of the suspension was centrifuged after stirring at 40° C. for 2 days, and then the residual sample was dried in a vacuum drying oven (30° C.) overnight to give a crystal form A of the compound represented by formula (I). The XRPD pattern of the crystal form A of the compound represented by formula (I) is shown in FIG. 1, the DSC pattern is shown in FIG. 2, and the TGA pattern is shown in FIG. 3.
30 mg of the compound represented by formula (I) was weighed and added into a glass flask, and 400 μL ethyl acetate was added to form a suspension. A sample of the suspension was placed on a magnetic stirrer (40° C.) for dark stirring experiment. The sample of the suspension was centrifuged after stirring at 40° C. for 2 days, and then the residual sample was dried in a vacuum drying oven (30° C.) overnight. The crystal form was detected by XRPD to give a crystal form A of the compound represented by formula (I).
30 mg of the compound represented by formula (I) was weighed and added into a glass flask, and 400 μL methanol was added to form a suspension. A sample of the suspension was placed on a magnetic stirrer (40° C.) for dark stirring experiment. The sample of the suspension was centrifuged after stirring at 40° C. for 2 days, and then the residual sample was dried in a vacuum drying oven (30° C.) overnight to give a crystal form B of the compound represented by formula (I). The XRPD pattern of the crystal form B of the compound represented by formula (I) is shown in FIG. 4, the DSC pattern is shown in FIG. 5, and the TGA pattern is shown in FIG. 6.
50 mg of the compound represented by formula (I) was weighed and added into a 1.5 mL liquid vial, and 200 μL methanol was added thereto, the obtained mixture was homogeneously mixed under ultrasound. The dissolved sample was quickly centrifuged, and the supernatant was placed in a centrifuge tube, the mouth of the tube was packed with a pierced aluminum foil, and then the tube was placed in a fume cupboard for volatilization; the sample of the suspension was placed on a magnetic stirring heater (40° C.) for stirring (in dark), and quickly centrifuged after 2 days. The resultant solid was collected and dried at 30° C. in a vacuum drying oven overnight to give the crystal form C of the compound represented by formula (I). The XRPD pattern of the crystal form C of the compound represented by formula (I) is shown in FIG. 7, the DSC pattern is shown in FIG. 8, and the TGA pattern is shown in FIG. 9.
50 mg of the compound represented by formula (I) was weighed and added into a 1.5 mL liquid vial, and 200 μL ethanol was added thereto, and the obtained mixture was homogeneously mixed under ultrasound. The dissolved sample was quickly centrifuged, the supernatant was placed into a centrifuge tube, and the mouth of the tube was packed with a pierced aluminum foil, and placed in a fume cupboard for volatilization; the sample of the suspension was placed on a magnetic stirring heater (40° C.) for stirring (in dark), and quickly centrifuged after 2 days. The solid obtained as above was collected and dried at 30° C. in a vacuum drying oven overnight to give a crystal form D of the compound represented by formula (I). The XRPD pattern of the crystal form D of the compound represented by formula (I) is shown in FIG. 10, the DSC pattern is shown in FIG. 11, and the TGA pattern is shown in FIG. 12.
35 mg of the compound represented by formula (II) was weighed and added into a 1.5 mL liquid vial, and 400 μL methanol was added thereto, and the obtained mixture was homogeneously mixed under ultrasound. […]

[3] = Acceleration test (40° C./relative humidity of 75%, open), 5 days
[4] = Acceleration test (40° C./relative humidity of 75%, open), 10 days
[5] = High humidity (room temperature/relative humidity of 92.5%, open), 5 days
[6] = High humidity (room temperature/relative humidity of 92.5%, open), 10 days
[7] = High temperature (60° C., open), 5 days
[8] = High temperature (60° C., open), 10 days
[9] = Light radiation (total illumination: 1.2 × 10^6 Lux·hr), 5 days
[10] = Light radiation (total illumination: 1.2 × 10^6 Lux·hr), 10 days

Structure (SMILES)	Appearance ([1]; 0 day (initial))	Content (%) ([1]; 0 day (initial))	Total Impurities (%) ([1]; 0 day (initial))	Appearance [1, 3]	Appearance [1, 4]	Content (%) [1, 4] [%]	Total Impurities (%) [1, 4] [%]	Appearance [1, 5]	Appearance [1, 6]	Content (%) [1, 6] [%]	Total Impurities (%) [1, 6] [%]	Appearance [1, 7]	Appearance [1, 8]	Content (%) [1, 8] [%]	Total Impurities (%) [1, 8] [%]	Appearance [1, 9]	Appearance [1, 10]	Content (%) [1, 10] [%]	Total Impurities (%) [1, 10] [%]	stability under acceleration conditions, conclusion in words [1]	other results
C=CC(=O)N[C@H]1COC[C@H]1Nc1ncc(/C=C(\F)c2c(Cl)c(OC)cc(OC)c2Cl)cn1 [Crystal Form C]	Off-white	98.96	1.25	Off-white	Off-white	98.96	1.26	Off-white	Off-white	98.22	2.08	Off-white	Off-white	98.93	1.27	Off-white	Off-white	98.35	1.86	good	Crystal Form (XRPD) ([1]; 0 day (initial)): form C; Crystal Form (XRPD) [1, 4]: form C; Crystal Form (XRPD) [1, 6]: form C; Crystal Form (XRPD) [1, 8]: form C; Crystal Form (XRPD) [1, 10]: form C; thermal stability (high temperature), conclusion in words [1]: good; stability in the methanol solution ([2]; stirring in methanol at 40° C. for 2 days): substantially high stability
C=CC(=O)N[C@H]1COC[C@H]1Nc1ncc(/C=C(\F)c2c(Cl)c(OC)cc(OC)c2Cl)cn1 [Crystal Form D]	Off-white	99.33	0.90	Off-white	Off-white	99.38	0.96	Off-white	Off-white	99.36	0.89	Off-white	Off-white	99.32	0.94	Off-white	Off-white	99.41	0.86	good	photostability (stability under light radiation), conclusion in words [1]: good; stability under high humidity conditions, conclusion in words [1]: good; thermal stability (high temperature), conclusion in words [1]: good; stability in the ethanol solution ([2]; stirring in ethanol at 40° C. for 2 days): substantially high stability
C=CC(=O)N[C@H]1COC[C@H]1Nc1ncc(/C=C(\F)c2c(Cl)c(OC)cc(OC)c2Cl)cn1.CS(=O)(=O)O [Crystal Form F]	White	99.26	0.72	White	White	99.22	0.71	White	White	99.24	0.73	White	White	99.22	0.79	White	White	99.30	0.73	good	Crystal Form (XRPD) ([1]; 0 day (initial)): form F; Crystal Form (XRPD) [1, 4]: form F; Crystal Form (XRPD) [1, 6]: form F; Crystal Form (XRPD) [1, 8]: form F; Crystal Form (XRPD) [1, 10]: form F; photostability (stability under light radiation), conclusion in words [1]: good; stability under high humidity conditions, conclusion in words [1]: good; thermal stability (high temperature), conclusion in words [1]: slight impurity generation; stability in the ethanol-water solution ([2]; stirring in ethanol-water (1:1) at 40° C. for 2 days): substantially high stability
